Test results: patent publication US20200115357A1, “LIVER X RECEPTORS (LXR) MODULATORS” (Phenex-FXR GmbH, priority 2017, published 2020)

Experiments:
Assay type in all cases: in vivo
[1] = Short term HFD mouse model, plasma and liver exposure; conditions: three oral doses of 20 mg/kg, HFD C57BL/6J mice; for Kp at 4 h: mouse, liver/plasma, read-out: liver/plasma ratio, 4 h; for liver exposure, 4 h / plasma exposure, 4 h: 4 h after final treatment
Description: (§1) Short Term HFD Mouse Model:
(§2) The in vivo transcriptional regulation of several LXR target genes by LXR modulators was assessed in mice.
For this, C57BL/6J were purchased from Elevage Janvier (Rennes, France) at the age of 8 weeks. After an acclimation period of two weeks, animals were preferred on a high fat diet (HFD) (Ssniff Spezialdiaten GmbH, Germany, Surwit EF D12330 mod, Cat. No. E15771-34), with 60 kcal % from fat plus 1% (w/w) extra cholesterol (Sigma-Aldrich, St. Louis, Mo.) for 5 days. Animals were maintained on this diet during treatment with LXR modulators. The test compounds were formulated in 0.5% hydroxypropylmethylcellulose (HPMC) and administered in three doses (20 mg/kg each) by oral gavage according to the following schedule: on day one, animals received treatment in the morning and the evening (ca. 17:00), on day two animals received the final treatment in the morning after a 4 h fast and were sacrificed 4 h thereafter. Animal work was conducted according to the national guidelines for animal care in Germany.
Upon termination, liver was collected, dipped in ice cold PBS for 30 seconds and cut into appropriate pieces. Pieces were snap frozen in liquid nitrogen and stored at −80° C. For the clinical chemistry analysis from plasma, alanine aminotransferase (ALT, IU/mL), cholesterol (CHOL, mg/dL) and triglycerides (TG, mg/dL) were determined using a fully-automated bench top analyzer (Respons®910, DiaSys Greiner GmbH, Flacht, Germany) with system kits provided by the manufacturer.

Fasn = assay: Short term HFD mouse model, gene expression in liver tissue: Fasn; conditions: liver mRNA (qPCR, normalized to Tbp), three oral doses of 20 mg/kg, HFD mice
Description: as §1, §2
(§3) For this, C57BL/6J were purchased from Elevage Janvier (Rennes, France) at the age of 8 weeks. After an acclimation period of two weeks, animals were preferred on a high fat diet (HFD) (Ssniff Spezialdiaten GmbH, Germany, Surwit EF D12330 mod, Cat. No. E15771-34), with 60 kcal % from fat plus 1% (w/w) extra cholesterol (Sigma-Aldrich, St. Louis, Mo.) for 5 days. Animals were maintained on this diet during treatment with LXR modulators. […]
(§4) Upon termination, liver was collected, dipped in ice cold PBS for 30 seconds and cut into appropriate pieces. […] For the clinical chemistry analysis from plasma, alanine aminotransferase (ALT, IU/mL), cholesterol (CHOL, mg/dL) and triglycerides (TG, mg/dL) were determined using a fully-automated bench top analyzer (Respons®910, DiaSys Greiner GmbH, Flacht, Germany) with system kits provided by the manufacturer. […]
(§5) To obtain total RNA from frozen liver tissue, samples (25 mg liver tissue) were first homogenized with RLA buffer (4M guanidin thiocyanate, 10 mM Tris, 0.97% w:v β-mercapto-ethanol). […] Quantitative PCR was performed and analyzed using Prime time Gene expression master mix (Integrated DNA Technologies, Coralville, Iowa, USA) and a 384-format ABI 7900HT Sequence Detection System (Applied Biosystems, Foster City, USA). […]

Scd1 = assay: Short term HFD mouse model, gene expression in liver tissue: Scd1; conditions: liver mRNA (qPCR, normalized to Tbp), three oral doses of 20 mg/kg, HFD mice
Description: as §1, §2, §3, §4, §5

Srebp1c = assay: Short term HFD mouse model, gene expression in liver tissue: Srebp1c; conditions: liver mRNA (qPCR, normalized to Tbp), three oral doses of 20 mg/kg, HFD mice
Description: as §1, §2, §3, §4, §5

Hepatic LXR target genes = assay: Short term HFD mouse model, hepatic LXR target genes (summary in words); conditions: multiple oral dosing in mice
Description: as §1, §2, §3
To obtain total RNA from frozen liver tissue, samples (25 mg liver tissue) were first homogenized with RLA buffer (4M guanidin thiocyanate, 10 mM Tris, 0.97% w:v β-mercapto-ethanol). […] Quantitative PCR was performed and analyzed using Prime time Gene expression master mix (Integrated DNA Technologies, Coralville, Iowa, USA) and a 384-format ABI 7900HT Sequence Detection System (Applied Biosystems, Foster City, USA). The expression of the following genes was analysed: Stearoyl-CoA desaturase1 (Scd1), fatty acid synthase (Fas) and sterol regulatory element-binding protein1 (Srebp1). […]

With `Cc1cc(C)c(S(=O)(=O)N(Cc2ccc(C(F)(F)F)o2)Cc2ccc(-c3cccc(C(C)(C)C(=O)O)c3)cc2Cl)c(C)c1` [10/5] the Kp at 4 h [1] was 33.3, the “liver exposure, 4 h” value [1] was 4.372 µM and the “plasma exposure, 4 h” value [1] was 131 nM. For the same compound, the “Fasn suppression compared to vehicle” value (Fasn) was 0.41, the “Scd1 suppression compared to vehicle” value (Scd1) was 0.38 and the “Srebp1c suppression compared to vehicle” value (Srebp1c) was 0.33. For the same compound, the “Hepatic LXR target genes (in words)” value (Hepatic LXR target genes) was “effectively suppressed”.
With `Cc1ccc2ccccc2c1S(=O)(=O)N(Cc1ccc(-c2cccc(C(C)(C)C(=O)O)c2)cc1)Cc1ccc(C(F)(F)F)o1` [Example 24, 2-Methyl-2-(4′-(((2-methyl-N-((5-(trifluoromethyl)furan-2-yl)methyl)naphthalene)-1-sulfonamido)methyl)-[1,1′-biphenyl]-3-yl)propanoic acid] the Kp at 4 h [1] was 52.4, the “liver exposure, 4 h” value [1] was 5.359 µM and the “plasma exposure, 4 h” value [1] was 102 nM. The “Fasn suppression compared to vehicle” value (Fasn) was 0.23, the “Scd1 suppression compared to vehicle” value (Scd1) was 0.25 and the “Srebp1c suppression compared to vehicle” value (Srebp1c) was 0.25. The “Hepatic LXR target genes (in words)” value (Hepatic LXR target genes) was “effectively suppressed”.
